The results in this text go back to patent US11634666B2, “Methods for spore removal comprising a polysorbate surfactant and cationic antimicrobial mixture” (3M INNOVATIVE PROPERTIES COMPANY, priority 2015, dated 2023).

The subject of the experiment is C. sporogenes spores ATCC 3584. The experiment in a line: In-vitro experiment to evaluate ability of test formulations to remove spores from skin like surfaces (Vitro-Skin, finger bag collection method). As to conditions: for log reduction of spores (in words): higher concentrations (1%). From the text:
The in-vitro method was designed to evaluate the removal of microbes from skin using a synthetic skin material from the cosmetic industry, Vitro-skin from IMS inc, Portland METhis method enables rapid screening of formulations for their propensity to promote release of microbes from skin and may be predictive of in-vivo activity.
The following materials were utilized. C. sporogenes spores ATCC 3584˜1.0×10^8 CFU/ml; Triton-X 100 sampling buffer (pH 7.4) Filter Sterilized: 0.4 g KH2PO4, 10.1 g Na2HPO4, 1 g Triton-X 100, and 1 L dH2O; D/E neutralizing broth; Fingers from disposable polyethylene gloves (VWR 32915-268); Sterile dH2O (WFI quality water); 3M AC Petrifilm; and 5 ml Falcon tubes; 1.5 ml EPI Centrifuge tubes; Petri Dishes; Vitro-Skin IMS Inc.; and double-sided tape.
The method included the following. Punched-out specified number of Vitro-Skin samples using the ¾″ punch. Attached punch-out Vitro-Skin samples to a Petri-dish or any other sterile flat surface using double-sided tape. Contaminated the Vitro-Skin samples accordingly with 10 μl of spores/spore prep (˜1×10^6 CFU/Sample). Used the pipette tip to spread spores over the surface and used a new pipette tip for each sample. Allowed the samples to dry (˜40 minutes). Placed three samples directly into separate finger bags containing 3 ml of triton-x 100 sampling solution or D/E neutralizing broth if one of the samples going to be tested contains antimicrobials. Used the “Finger bag collection method” below for each of the three recovery controls.
The Finger bag collection method was carried out as follows. First, a finger bag was cut from disposable gloves.
For the controls: Filled the finger bag with 3 ml of sampling solution. Placed contaminated Vitro-Skin sample into the finger bag containing sampling solution. Massaged finger bag for 1 minute using thumb and index finger. Removed aliquot of fluid from the finger bag and place into an appropriately labeled 1.5 ml centrifuge tube.
For the tested samples: Placed contaminated Vitro-Skin sample into a finger bag containing 3 ml of appropriate test solution. Massage in finger bag for 20 seconds. Removed the Vitro-Skin sample from the finger bag and place into a new finger bag containing 3 ml of sampling solution (Triton x-100 glove juice buffer or D/E neutralizing broth). Collected sample by using the finger bag collection method noted above. Repeat “Placed contaminated vitro-skin sample . . . ” to “Collected sample . . . ” for each of the test solutions.
For best statistical data each test solution was repeated 3 times. Heat treated appropriately labeled 1.5 ml centrifuge tubes containing aliquots of solution for 20 min at 80 C. Serially diluted samples in butterfield's buffer and plate 10^-1 to 10^-4 dilution on AC Petrifilm. Heat shocked, diluted, and plated spore stock day of experiment. Incubated Petrifilm in an anaerobic chamber at 37 C for 20-24 hours. Counted plates and analyzed data.

[1] abbreviates: Example 3, added to water, all concentrations.

Turning to `Cc1cc(O)cc(C)c1Cl` [PCMX, 4-chloro-3,5-dimethylphenol], the “log reduction of spores (in words)” value (Example 3) is recorded as “good log reduction of spores”.

Regarding `Oc1cc(Cl)ccc1Oc1ccc(Cl)cc1Cl` [Triclosan, 5-chloro-2-(2,4-dichlorophenoxy)phenol], where the note is “Example 3”, the “log reduction of spores (in words)” value is recorded as “good log reduction of spores”.

Take `N=C(NCCCCCCNC(=N)NC(=N)Nc1ccc(Cl)cc1)NC(=N)Nc1ccc(Cl)cc1.O=C(O)[C@H](O)[C@@H](O)[C@H](O)[C@H](O)CO.O=C(O)[C@H](O)[C@@H](O)[C@H](O)[C@H](O)CO` [chlorhexidine gluconate, Chlorhexidine gluconate]: the “spore removal (in words)” value reads like this: under setting [1], “poor spore removal”; (Example 6, Tables 6a/6b) “poor spore removal”.

In the case of `CCCCCCCCN=c1ccn(CCCCCCCCCCn2ccc(=NCCCCCCCC)cc2)cc1.Cl.Cl` [octinidine, N,N′-(decane-1,10-diyldipyridin-1-yl-4-ylidene)dioctan-1-amine dihydrochloride], the “spore removal (in words)” value (Example 3, higher concentration) was “unaffected”.

For the molecule benzalkonium chloride, under setting [1], the “spore removal (in words)” value was “poor spore removal”.
